# ChEMBL document CHEMBL4420077, “Synaptojanin-2 inhibitors and uses thereof” (2015)
# Active and inactive are the calls of the source. No cut-off for these calls is given here.
# What was measured:
# MDA-MB-231 [1] = settings: Homo sapiens, 10 uM
# Description: Inhibition of cell invasion of human MDA-MB-231 cells at 10 uM incubated for 96 hrs by Matrigel based assay
# MDA-MB-231 [2] = settings: Homo sapiens, 5 mg/kg
# Description: Antitumor activity against GFP-expressing human MDA-MB-231 cells xenografted in SCID mouse assessed as reduction in tumor lung micro-metastasis at 5 mg/kg injected twice per week for 6 weeks
Structure (SMILES),inhibition (MDA-MB-231 [1]),inhibition (MDA-MB-231 [2])
Cc1c(O)cc2c(c1O)C(=O)[C@H](O)[C@@H](c1ccc(O)c(O)c1)O2,Active,
Cc1cc(=O)c2c(O)cc(O)c([C@@H]3O[C@H](CO)[C@@H](O)[C@H](O)[C@H]3O)c2o1,Active,
COc1cc(O)cc(O)c1C(=O)c1ccc(O)c(O)c1,Active,
O=C1C[C@@H](c2ccc(O)c(O)c2)Oc2cc(O[C@@H]3O[C@H](CO)[C@@H](O)[C@H](O)[C@H]3O)cc(O)c21,Active,
COc1cc(C2c3c(cc(OC)c(O)c3OC)CC(CO)C2COC2OCC(O)C(O)C2O)cc(OC)c1O (configuration not stated),Active,
O=C(O)CC(CCc1ccccc1)O[C@H]1O[C@@H](CO)[C@H](O)[C@@H](O)[C@@H]1O (some centres not stated),,Active
C/C(=C\CO[C@@H]1O[C@H](CO)[C@@H](O)[C@H](O)[C@H]1O)C(O)CCC(C)(C)O (some centres not stated),Active,
